In publication PMC4659538, “Human GAPDH Is a Target of Aspirin’s Primary Metabolite Salicylic Acid and Its Derivatives” (PLoS ONE, 2015):

Tests used:
[1] = biological target: T1, human Glyceraldehyde 3-Phosphate Dehydrogenase (HsGAPDH) (Homo sapiens, UniProt P04406); assay: UV photoaffinity crosslinking ([…]) with anti-SA immunoblot; assay type: binding
T1 construct: gene GAPDH; N-terminally His-tagged human GAPDH, expressed in E. coli

[2] = biological target: T1, human Glyceraldehyde 3-Phosphate Dehydrogenase (HsGAPDH); assay: SPR competition with immobilized 3AESA; competition of 4AzSA photoaffinity crosslinking; assay type: binding

T1 sequence (P04406 whole entry): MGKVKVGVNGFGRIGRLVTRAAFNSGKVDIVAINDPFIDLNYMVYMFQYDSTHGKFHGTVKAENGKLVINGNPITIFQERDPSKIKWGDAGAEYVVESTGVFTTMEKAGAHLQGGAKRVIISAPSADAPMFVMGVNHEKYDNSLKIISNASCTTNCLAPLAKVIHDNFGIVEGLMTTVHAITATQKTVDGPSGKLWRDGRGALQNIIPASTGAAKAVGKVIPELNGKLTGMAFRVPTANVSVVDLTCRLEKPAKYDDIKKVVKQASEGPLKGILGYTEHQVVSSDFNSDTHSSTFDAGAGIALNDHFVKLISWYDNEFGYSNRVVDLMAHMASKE

Row | SMILES | UV photoaffinity crosslinking (0.05 mM) with anti-SA immunoblot [1] | SPR competition with immobilized 3AESA; competition of 4AzSA photoaffinity cross [2]
1 | [N-]=[N+]=Nc1ccc(C(=O)O)c(O)c1 [4AzSA, 4-azido salicylic acid] | Recombinant HsGAPDH crosslinked with 4AzSA, and this crosslinking was suppressed in the presence of increasing levels of SA. | –
2 | O=C(O)c1ccccc1O [SA, Salicylic acid] | – | suppression of this interaction required millimolar concentrations of SA (Fig 2B)
